Measured values as given in patent US20250034098A1, “CRYSTALLINE SUBSTITUTED PYRAZINES AS PGI2 RECEPTOR AGONISTS” (NIPPON SHINYAKU CO., LTD., priority 2017, published 2025).

How the values were obtained:
PGI2 receptor = PGI2 receptor (Homo sapiens, UniProt P43119); details: cited from earlier work
[1] = Stability test of crystal forms of Compound B (Test Example 1); format: physicochemical; details: for thermodynamic stability of the crystal form: Test Example 1, storage at 90° C.; for crystal form transformation on storage: storage at 90° C.; for Crystal form after 14 days: stored at 90° C.
Procedure: Different crystal forms of Compound B were placed in glass bottles, respectively, and the glass bottles were hermetically sealed and stored at 90° C. Samples were taken out after 1 day, 5 days, and 14 days, and dissolved in methanol at a concentration of 1 mg/mL to determine related substances by HPLC. With respect to the crystals after 14 days, the crystal form was checked.

[2] = Solvent suspending test of form-I crystal in different solvents (Test Example 2); format: physicochemical; details: for Crystal form after 30 minutes at room temperature: stirring
Procedure: The form-I crystal of the present invention was mixed with different solvents, and stirring was performed at room temperature for 30 minutes. The formed crystals were obtained by filtration, and the crystal forms were determined.

[3] = 90° C., after 1 day, hermetically sealed glass bottle
[4] = 90° C., after 5 days, hermetically sealed glass bottle
[5] = 90° C., after 14 days, hermetically sealed glass bottle
[6] = hermetically sealed glass bottle

Sequence of PGI2 receptor (P43119 whole entry, species assumed): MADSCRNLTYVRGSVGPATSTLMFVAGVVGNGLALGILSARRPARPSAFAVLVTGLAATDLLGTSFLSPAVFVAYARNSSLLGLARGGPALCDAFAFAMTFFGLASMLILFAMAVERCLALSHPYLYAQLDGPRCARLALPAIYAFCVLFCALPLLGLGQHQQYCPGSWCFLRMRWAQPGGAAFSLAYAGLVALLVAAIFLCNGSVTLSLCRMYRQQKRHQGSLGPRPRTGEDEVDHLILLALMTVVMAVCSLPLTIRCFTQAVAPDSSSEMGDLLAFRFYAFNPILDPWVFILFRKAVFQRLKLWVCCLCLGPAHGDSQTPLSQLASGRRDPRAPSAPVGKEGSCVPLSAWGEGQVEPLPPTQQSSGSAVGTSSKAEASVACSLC

| Appearance [1, 3] | HPLC area (%) [1, 3] [%] | Appearance [1, 4] | HPLC area (%) [1, 4] [%] | Appearance [1, 5] | HPLC area (%) [1, 5] [%] | Appearance ([1]; Before storage) | HPLC area (%) ([1]; Before storage) | crystal form transformation on storage [1] | Crystal form after 14 days [1, 6] | Compound | further results |
| --- | --- | --- | --- | --- | --- | --- | --- | --- | --- | --- | --- |
|  |  |  |  |  |  |  |  |  |  | CC(C)N(CCCCOCC(=O)O)c1cnc(-c2ccccc2)c(-c2ccccc2)n1 [Compound B, 2-{4-[N-(5,6-diphenylpyrazin-2-yl)-N-isopropylamino]butyloxy}acetic acid] | PGI2 receptor agonistic effect (PGI2 receptor): excellent |
| No change | 99.8 | No change | 99.8 | No change | 99.6 | White crystal | 99.8 | gradually transformed into the form-II | Form-I + Form-II | CC(C)N(CCCCOCC(=O)O)c1cnc(-c2ccccc2)c(-c2ccccc2)n1 [Form-I, 2-{4-[N-(5,6-diphenylpyrazin-2-yl)-N-isopropylamino]butyloxy}acetic acid] | thermodynamic stability of the crystal form ([1]; listed as form-I crystal): thermodynamically more stable; crystal form transformation when suspended ([2]; all the solvents, room temperature): partially transformed into the form-II crystal of the present invention; Crystal form after 30 minutes at room temperature ([2]; solvent 2-propanol): Form-I + Form-II (1:10); Crystal form after 30 minutes at room temperature ([2]; solvent cyclohexane): Form-I + Form-II (1:1); Crystal form after 30 minutes at room temperature ([2]; solvent toluene): Form-I + Form-II (10:1); Crystal form after 30 minutes at room temperature ([2]; solvent water): Form-I + Form-II (10:1) |
| No change | 100 | No change | 100 | No change | 99.9 | Yellow crystal | 100 |  | Form-II | CC(C)N(CCCCOCC(=O)O)c1cnc(-c2ccccc2)c(-c2ccccc2)n1 [Form-II, 2-{4-[N-(5,6-diphenylpyrazin-2-yl)-N-isopropylamino]butyloxy}acetic acid] | thermodynamic stability of the crystal form [1]: thermodynamically stable; thermodynamic stability of the crystal form ([1]; listed as form-II crystal): thermodynamically more stable; thermodynamic stability of the crystal form when suspended ([2]; various solvents at room temperature): thermodynamically stable |
| No change | 99.9 | No change | 99.9 | No change | 99.7 | Yellow crystal | 99.9 | gradually transformed into the form-II | Form-II | CC(C)N(CCCCOCC(=O)O)c1cnc(-c2ccccc2)c(-c2ccccc2)n1 [Form-III, 2-{4-[N-(5,6-diphenylpyrazin-2-yl)-N-isopropylamino]butyloxy}acetic acid] | thermodynamic stability of the crystal form ([1]; listed as form-III crystal): thermodynamically unstable |
